Results taken from US5283353A, “Preparation of 1-amino-1-deoxyoligosaccharides and derivatives thereof” (Genzyme Corporation, priority 1990, dated 1994).
Where two headings read alike, the source gives them in different places.

Tests used:
[1] = Hydrolysis of 1-amino-1-deoxy-N-acetylglucosamine to 2-acetamido-2-deoxy-D-glucose in 50 mM phosphate p2H 7.0 buffer, followed by 1H NMR; assay type: physicochemical; settings: for Pseudo-first order rate constant for hydrolysis: calculated
Procedure: To a solution of 1 mg of turkey ovomucoid glycopeptide (a heterogeneous mixture of three structurally related complex type oligosaccharides purified as described by E. M. Taga et al., Biochemistry, 23, 815-822 (1984)) in 50 mM phosphate, p^2 H 7.0 buffer in 99.96% ^2 H2 O equilibrated at the desired temperature was added the almond amidohydrolase enzyme to give a total volume of 0.5 ml. The reaction was followed by ^1 H NMR. The hydrolysis of 1-amino-1-deoxy-N-acetylglucosamine in 50 mM phosphate, p^2 H 7.0, buffer in 99.96% ^2 H2 O to 2-acetamido-2-deoxy-D-glucose was followed by ^1 H NMR as a reference compound. The proton peaks of interest were integrated and the pseudo first-order rate constant was calculated from the slope of a plot of the natural logarithm of the peak area as a function of time.
The rate of hydrolysis for the model compound was readily measured using ^1 H NMR. Upon hydrolysis, the ^1 H NMR signal for the anomeric proton of the model compound shifts downfield from 4.189 ppm (J1,2 =9.35 Hz) to 5.195 ppm (J1,2 =3.38 Hz) and 4.709 ppm (J1,2 =3.38 Hz), the former the alpha-anomer and the latter the beta-anomer of the product, N-acetylglucosamine, while the chemical shift of the N-acetyl group is unchanged. The pseudo-first order rate constants for the enzyme-catalyzed reaction and for the hydrolysis of the model compound are given in Table I; based on least squares standard error analysis, the precision in the pseudo-first order rate constant is ±5%. These limited data give energies of activation for the enzyme-catalyzed reaction of 9.5 kcal […] and for the model compound of 17.7 kcal mol^1.

[2] = cited from earlier work

## CC(=O)N[C@@H]1[C@@H](O)[C@H](O)[C@@H](CO)O[C@H]1N [1-Amino-N-acetylglucosamine, 1-amino-1-deoxy-N-acetylglucosamine]
[1]; p2H 7.0, 24 °C
  Pseudo-first order rate constant for hydrolysis: 1.08 10^3 × k (min^-1)
[1]; p2H 7.0, 39 °C
  Pseudo-first order rate constant for hydrolysis: 4.56 10^3 × k (min^-1)
[1]; p2H 7.0, from rate constants of Table I
  Energy of activation for hydrolysis of the model compound: 17.7 kcal mol^1
[2]; p2H 7.0, 22 °C
  Pseudo-first order rate constant for hydrolysis: 0.88 10^3 × k (min^-1)
[2]; p2H 7.0, 37 °C
  Pseudo-first order rate constant for hydrolysis: 3.81 10^3 × k (min^-1)
